Reference: ChEMBL document CHEMBL1201862, “PubChem BioAssay data set” (2004)
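48-hour exposure; five concentrations; linearly interpolated endpoints. Abbreviation: GI50, concentration required for 50% inhibition of growth.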 The source made the active and inactive calls. Cut-off read from the data, not from the text of the source: active = GI50 up to about 1.1 µM and inactive = higher.

Assays:
Assay in all cases: inhibition of tumour cell growth, NCI panel, 48 h
A498 = tested on: A498
UACC-62 = tested on: UACC-62
SK-MEL-28 = tested on: SK-MEL-28
OVCAR-8 = tested on: OVCAR-8
SNB-75 = tested on: SNB-75
HCC 2998 = tested on: HCC 2998
NCI-H23 = tested on: NCI-H23
RPMI-8226 = tested on: RPMI-8226
HCT-15 = tested on: HCT-15
KM12 = tested on: KM12
SK-MEL-2 = tested on: SK-MEL-2
RXF 393 = tested on: RXF 393
A549 = tested on: A549
786-0 = tested on: 786-0
NCI-H226 = tested on: NCI-H226
SK-MEL-5 = tested on: SK-MEL-5
EKVX = tested on: EKVX
HT-29 = tested on: HT-29
ACHN = tested on: ACHN
TK-10 = tested on: TK-10

SMILES | GI50 (A498) | GI50 (UACC-62) | GI50 (SK-MEL-28) | GI50 (OVCAR-8) | GI50 (SNB-75) | GI50 (HCC 2998) | GI50 (NCI-H23) | GI50 (RPMI-8226) | GI50 (HCT-15) [µM] | GI50 (KM12) | GI50 (SK-MEL-2) | GI50 (RXF 393) | GI50 (A549) | GI50 (786-0) | GI50 (NCI-H226) | GI50 (SK-MEL-5) | GI50 (EKVX) | GI50 (HT-29) | GI50 (ACHN) | GI50 (TK-10)
O=C1C(Cl)=C(Sc2nnc3c4ccccc4c4ccccc4c3n2)C(=O)c2ccccc21 | 20.3 µM (inactive) | 15.8 µM (inactive) | 21.8 µM (inactive) | 8.47 µM (inactive) | 2.97 µM (inactive) | 32.4 µM (inactive) | 5 µM (inactive) | 13.7 µM (inactive) | 19 | 14.8 µM (inactive) | 16.6 µM (inactive) | 17.1 µM (inactive) | 24.6 µM (inactive) | 16.4 µM (inactive) | 19.3 µM (inactive) | 7.8 µM (inactive) | 17.6 µM (inactive) | 25.1 µM (inactive) | 15.7 µM (inactive) | 22 µM (inactive)
CCc1c(O)c2c(c(O)c1C(C)=O)C(=O)c1c(cc(O)c(C(=O)O)c1C(=O)O)C2=O | > 100 µM (inactive) | > 100 µM (inactive) | > 100 µM (inactive) | > 100 µM (inactive) | > 100 µM (inactive) | > 100 µM (inactive) | > 100 µM (inactive) | > 100 µM (inactive) | > 100 | > 100 µM (inactive) | > 100 µM (inactive) | > 100 µM (inactive) | > 100 µM (inactive) | > 100 µM (inactive) | > 100 µM (inactive) | > 100 µM (inactive) | > 100 µM (inactive) | > 100 µM (inactive) | > 100 µM (inactive) | > 100 µM (inactive)
C=C(C)[C@@H]1CC[C@@H]2C(=CC[C@]3(C)C([C@H](C)CC/C=C(/C)C(=O)O)CC[C@@]23C)[C@@]1(C)CCC(=O)O (stereo not given in full) | 33.3 µM (inactive) | 20.4 µM (inactive) | 27.9 µM (inactive) | 34.4 µM (inactive) | 34.4 µM (inactive) | 18.8 µM (inactive) | 24 µM (inactive) | 22.9 µM (inactive) | 21.3 | 23.4 µM (inactive) | 20.2 µM (inactive) | 19.4 µM (inactive) | 36.8 µM (inactive) | 21.8 µM (inactive) | 21.3 µM (inactive) | 16.9 µM (inactive) | 36.3 µM (inactive) | 21.7 µM (inactive) | 19 µM (inactive) | 36.6 µM (inactive)
CC(C)C(=O)/C=C/c1c(Cl)cccc1Cl | 21.2 µM (inactive) | 6.35 µM (inactive) | 5.81 µM (inactive) | 3.86 µM (inactive) | 2.25 µM (inactive) | 15.6 µM (inactive) | 2.33 µM (inactive) | > 100 µM (inactive) | 4.55 | 2.85 µM (inactive) | 2.25 µM (inactive) | 5.43 µM (inactive) | 4.15 µM (inactive) | 7.74 µM (inactive) | 2.33 µM (inactive) | 4.95 µM (inactive) | 13.3 µM (inactive) | 2.84 µM (inactive) | 4.74 µM (inactive) | 12.1 µM (inactive)
CC(=O)NNc1nc(C)c(C(=O)NNC(=O)C(=O)Nc2ccccc2C#N)s1 | > 100 µM (inactive) | > 100 µM (inactive) | > 100 µM (inactive) | > 100 µM (inactive) | > 100 µM (inactive) | > 100 µM (inactive) | > 100 µM (inactive) | > 100 µM (inactive) | > 100 | 50.1 µM (inactive) | > 100 µM (inactive) | > 100 µM (inactive) | > 100 µM (inactive) | > 100 µM (inactive) | > 100 µM (inactive) | > 100 µM (inactive) | > 100 µM (inactive) | > 100 µM (inactive) | > 100 µM (inactive) | > 100 µM (inactive)
O=C1NC(=O)C2C3C=CC(C12)C1C2C(=O)NC(=O)C2C31 (stereo not given) | 158 µM (inactive) | 107 µM (inactive) | 222 µM (inactive) | 203 µM (inactive) | 197 µM (inactive) | 221 µM (inactive) | 245 µM (inactive) | 185 µM (inactive) | 237 | 220 µM (inactive) | 173 µM (inactive) | 220 µM (inactive) | 93.8 µM (inactive) | 682 µM (inactive) | 177 µM (inactive) | 195 µM (inactive) | 234 µM (inactive) | 177 µM (inactive) | > 250 µM (inactive) | > 250 µM (inactive)
